Measured values taken from ChEMBL document CHEMBL2073831, “Biliary transport of irinotecan and metabolites in normal and P-glycoprotein-deficient mice” (Cancer Chemother Pharmacol, 2002).

Target: P-glycoprotein 1 and 3 (MDR1a/MDR1b) (Mus musculus, UniProt P21447+P06795)
Test: TP_TRANSPORTER: decrease in biliary excretion in mdr1a/1b(-/-) mouse
Assay type: functional, organism-based, Bile
Settings: in vivo

Activity: substrate [+]
SMILES: CCc1c2c(nc3ccc(OC(=O)N4CCC(N5CCCCC5)CC4)cc13)-c1cc3c(c(=O)n1C2)COC(=O)[C@]3(O)CC [IRINOTECAN]
